In brackets after ≈: the same amount, converted by molar mass. Like-named read-outs stand apart in the source and are kept apart here. Blank lines part the entries; values can stand above or below the molecule they belong to.
Assays:
[1] = system: Trichophyton rubrum B68183; experiment: Antifungal activity in vitro (resazurin susceptibility screen), Inf. C; format: cell-based; conditions: Trichophyton rubrum, B68183, Trichophyton rubrum B68183; 27 °C, 7 days, resa time 24 hours
In short: (§1)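 RPMI-1640/2% glucose/MOPS pH 7.0; 10^3 cfu per well; top conc 64 μM, 2- or 4-fold dilutions from DMSO. Yeasts 24 h 37° C, dermatophytes ≥1 wk 27° C. Resazurin 0.005% added, fluorescence ex 550/em 590 nm vs untreated growth and medium-only controls.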

[2] = system: Aspergillus fumigatus B42928; experiment: Antifungal activity in vitro (resazurin susceptibility screen), Inf. E; format: cell-based; conditions: Aspergillus fumigatus, B42928, Aspergillus fumigatus B42928; 27 °C, 48 hours, resa time 17 hours
In short: as §1

[3] = system: Cryptococcus neoformans B66663; experiment: Antifungal activity in vitro (resazurin susceptibility screen), Inf. F; format: cell-based; conditions: Cryptococcus neoformans, B66663, Cryptococcus neoformans B66663; 37 °C, 24 hours, resa time 4 hours
In short: as §1

[4] = system: Trichophyton mentagrophytes B70554; experiment: Antifungal activity in vitro (resazurin susceptibility screen), Inf. G; format: cell-based; conditions: Trichophyton mentagrophytes, B70554, Trichophyton mentagrophytes B70554; 27 °C, 7 days, resa time 24 hours
In short: as §1

[5] = system: Scedosporium prolificans IHEM21157; experiment: Antifungal activity in vitro (resazurin susceptibility screen), Inf. I; format: cell-based; conditions: Lomentospora prolificans, 37 °C, 48 hours, resa time 17 hours
In short: as §1

[6] = system: Sporothrix schenkii B62482; experiment: Antifungal activity in vitro (resazurin susceptibility screen), Inf. A; format: cell-based; conditions: Sporothrix, B62482, Sporothrix schenkii B62482; 27 °C, 4 days, resa time 24 hours
In short: as §1

[7] = system: Microsporum canis (strain B68128); experiment: Test D.4.1: activity against M. canis in guinea-pigs after oral treatment for 7 consecutive days; format: in vivo; parameters: key to semi-quantitative lesion score (mean): lesion score 0–3.5 by severity and size of lesion
Protocol: (§2) The animals used in the tests described below were female Guinea pigs (Duncan-Hartley, Charles River, 200 g). These animals were kept in groups of 2 or 3 in cages of 56×33×20 cm^3. Food pellets (Carfil Quality) and water were available ad libitum in addition to a small daily amount of hay. Standard husbandry conditions were adopted: room temperature: 22° C., humidity level: 60% and a day-night cycle of 12 h.
(§3) For the preparation of inoculums, Microsporum canis (strain B68128) was grown on Sabouraud Dextrose Agar (SDA) plates for at least one week (7-10 days) before infection (27° C.). On the day of infection, spores were harvested by adding 4-5 ml sterile water on the plate and suspending the infectious material with a bend Pasteur pipette. From the recollected fluid, 10 μl was added to a KOVA counting chamber for determination of the number of spores in 1 square (average of several squares). If needed, additional dilutions (10× or 100×) were prepared. The average number of spores in one square×dilution×90.000=cfu/ml. An inoculum of 1×10^7 cfu/ml was prepared in a honey-water mixture (50%-50%).
(§4) In the tests described below, semi-quantitative lesion scores were given based on different clinical parameters. Scores between 0 and 3.5 were assigned based on the severity and size of the lesion. The criteria are listed in detail in Table 6.
The dorsum of the guinea pigs was shaved and further depilated for 3 minutes with Veet® creme before scarification with a steel brush. An inoculum of 10^6 cfu in 150 μl (75 mQ+75 μl honey) was applied to the wound using a micropipette with disposable tips. The animal was kept immobilized until the inoculum had completely dried. […]
vehicle: methocel 0.5%, Tween 80® (polysorbate 80), demineralised water reference compound: itraconazole at 6.25 mg/ml test compounds: prepared at 25 mg/ml, subsequently further diluted
Oral treatment (gavage 0.16 ml/100 g once daily) was started about 2 hours before infection and continued once daily for 7 consecutive days. The animals were weighed after 3 days of treatment to adjust for the dose.
Developments of lesions were evaluated following the semi-quantitative lesion scoring system (see Table 6) on days 3, 5, 7, 10, 12, 14, 17 and 20. The results are show in Table 7 (“DPI” means days post infection). Reported values in Table 7 are mean values.

[8] = system: Rhizomucor miehei IHEM13391; experiment: Antifungal activity in vitro (resazurin susceptibility screen), Inf. K; format: cell-based; conditions: Rhizomucor miehei, IHEM13391, Rhizomucor miehei IHEM13391; 37 °C, 48 hours, resa time 17 hours
In short: as §1

Microsporum canis B68128 = experiment: Antifungal activity in vitro (resazurin susceptibility screen), Inf. B; format: cell-based; conditions: Microsporum canis, B68128, Microsporum canis B68128; 27 °C, 9 days, resa time 24 hours
In short: as §1

Rhizopus oryzae IHEM5223 = experiment: Antifungal activity in vitro (resazurin susceptibility screen), Inf. J; format: cell-based; conditions: Rhizopus arrhizus, 37 °C, 24 hours, resa time 6 hours
In short: as §1

[9] = system: Scedosporium apiospermum IHEM3817; experiment: Antifungal activity in vitro (resazurin susceptibility screen), Inf. H; format: cell-based; conditions: Scedosporium apiospermum, IHEM3817, Scedosporium apiospermum IHEM3817; 37 °C, 48 hours, resa time 17 hours
In short: as §1

[10] = system: Candida parapsilosis B66126; experiment: Antifungal activity in vitro (resazurin susceptibility screen), Inf. D; format: cell-based; conditions: Lodderomyces parapsilosis, B66126, Candida parapsilosis B66126; 37 °C, 24 hours, resa time 4 hours
In short: as §1

[11] = system: Mucor circinelloides IHEM21105; experiment: Antifungal activity in vitro (resazurin susceptibility screen), Inf. L; format: cell-based; conditions: 27 °C, 48 hours, resa time 17 hours
In short: as §1

[12] = system: Microsporum canis (strain B68128); experiment: Analogous protocol: comparison compounds (G10, G11) against M. canis in guinea pigs after oral treatment; format: in vivo; parameters: key to semi-quantitative lesion score (mean): lesion score 0–3.5 by severity and size of lesion; conditions: oral 50 mg/kg once daily for 7 days
Protocol: as §2, §3, §4
For the sake of comparison, 2 compounds not having the 1,1-difluoroethyl moiety in the R^5 or R^6 position, were tested in an analogous protocol:
The dorsum of the guinea pigs was shaved and further depilated for 7 minutes with Veet® creme before scarification with a steel brush. An inoculum of 10^6 cfu in 200 μl (100 μl mQ+100 μl honey) was applied to the wound using a micropipette with disposable tips. The animal was kept immobilized until the inoculum had completely dried.
Vehicle: methocel F4M Premium EP, Tween 80® (polysorbate 80), demineralised water.
Test compounds: prepared at 30 mg/ml, subsequently further diluted until 6 mg/ml.
Oral treatment (gavage 0.40 ml/guinea pig once daily) was started about 2 hours before infection and continued once daily for 7 consecutive days.
Developments of lesions were evaluated following the semi-quantitative lesion scoring system (see Table 6) on days 3, 5, 7, 10, 12, 14, 18 and 21. Reported values in Table 8 are mean values.

[13] = Solubility in buffer systems A-G; format: physicochemical; conditions: thermodynamic from solid
Protocol: A magnetic stirring bar was added to the mixtures. […] If the compound was dissolved, the result was reported (twice the weighed amount of compound/ml). If the compound was not dissolved, 0.5 ml of extra solvent was added to the suspension. […] If the compound was dissolved, the result was reported (weighed amount of compound/ml). If the compound was not dissolved, 1 ml of extra solvent is pipetted into the suspension. The mixtures were shaken (Edmund Buhler SM25 175 SPM) at ambient temperature overnight and inspected afterwards. If the compound was dissolved, the result was reported (half the weighed amount of compound/ml). If the compound was not dissolved, the suspension was filtered over a filter disc. An aliquot of the filtrate was diluted with an appropriate solvent (0.1 N HCl/acetonitrile 1/1) and submitted for concentration measurement (mg/ml) using a generic UPLC method.

[14] = pH 4, aqueous with cosolvent or surfactant or cyclodextrin, buffer pH 4, containing 10% (w/v) of HPBCD, read-out: Solubility, buffer system C
[15] = pH 7.4, aqueous with cosolvent or surfactant or cyclodextrin, buffer pH 7.4, containing 10% (w/v) of HPBCD, read-out: Solubility, buffer system F
[16] = pH 7.4, aqueous with cosolvent or surfactant or cyclodextrin, buffer pH 7.4, containing 20% (w/v) of HPBCD, read-out: Solubility, buffer system G

IC50 [1]: 0.372 µM
IC50 [2]: 2 µM
IC50 [3]: 37.2 µM
IC50 [4]: 0.603 µM
IC50 [5]: 1.32 µM
melting point: 106.9 to 109.7 °C
IC50 [6]: 43.7 µM
IC50 [8]: 45.7 µM
IC50 (Microsporum canis B68128): 0.525 µM
IC50 (Rhizopus oryzae IHEM5223): > 64.6 µM
IC50 [9]: 1.74 µM
IC50 [10]: 3.02 µM
IC50 [11]: > 64.6 µM
Structure (SMILES): CC(F)(F)c1cccc(C2=NCc3c(Cl)cccc3-n3cccc32)c1 [Compound 14, 7-chloro-4-[3-(1,1-difluoroethyl)phenyl]-6H-pyrrolo[1,2-a][1,4]benzodiazepine]
semi-quantitative lesion score (mean) ([7]; oral 10 mg/kg once daily for 7 days, 3 DPI): 0.33
semi-quantitative lesion score (mean) ([7]; oral 10 mg/kg once daily for 7 days, 5 DPI): 1.17
semi-quantitative lesion score (mean) ([7]; oral 10 mg/kg once daily for 7 days, 7 DPI): 2.00
semi-quantitative lesion score (mean) ([7]; oral 10 mg/kg once daily for 7 days, 10 DPI): 2.17
semi-quantitative lesion score (mean) ([7]; oral 10 mg/kg once daily for 7 days, 12 DPI): 2.33
semi-quantitative lesion score (mean) ([7]; oral 10 mg/kg once daily for 7 days, 14 DPI): 2.17
semi-quantitative lesion score (mean) ([7]; oral 10 mg/kg once daily for 7 days, 17 DPI): 1.67
semi-quantitative lesion score (mean) ([7]; oral 10 mg/kg once daily for 7 days, 20 DPI): 1.17
semi-quantitative lesion score (mean) ([7]; oral 20 mg/kg once daily for 7 days, 3 DPI): 0
semi-quantitative lesion score (mean) ([7]; oral 20 mg/kg once daily for 7 days, 5 DPI): 0.33
semi-quantitative lesion score (mean) ([7]; oral 20 mg/kg once daily for 7 days, 7 DPI): 0.83
semi-quantitative lesion score (mean) ([7]; oral 20 mg/kg once daily for 7 days, 10 DPI): 1.67
semi-quantitative lesion score (mean) ([7]; oral 20 mg/kg once daily for 7 days, 12 DPI): 2.00
semi-quantitative lesion score (mean) ([7]; oral 20 mg/kg once daily for 7 days, 14 DPI): 1.67
semi-quantitative lesion score (mean) ([7]; oral 20 mg/kg once daily for 7 days, 17 DPI): 1.50
semi-quantitative lesion score (mean) ([7]; oral 20 mg/kg once daily for 7 days, 20 DPI): 0.67
activity compared with the terbinafine group (G2, 10 mg/kg) ([7]; oral 40 mg/kg once daily for 7 days): comparable to G2
semi-quantitative lesion score (mean) ([7]; oral 40 mg/kg once daily for 7 days, 3 DPI): 0
semi-quantitative lesion score (mean) ([7]; oral 40 mg/kg once daily for 7 days, 5 DPI): 0.17
semi-quantitative lesion score (mean) ([7]; oral 40 mg/kg once daily for 7 days, 7 DPI): 0.67
semi-quantitative lesion score (mean) ([7]; oral 40 mg/kg once daily for 7 days, 10 DPI): 1.17
semi-quantitative lesion score (mean) ([7]; oral 40 mg/kg once daily for 7 days, 12 DPI): 0.83
semi-quantitative lesion score (mean) ([7]; oral 40 mg/kg once daily for 7 days, 14 DPI): 0.50
semi-quantitative lesion score (mean) ([7]; oral 40 mg/kg once daily for 7 days, 17 DPI): 0.17
semi-quantitative lesion score (mean) ([7]; oral 40 mg/kg once daily for 7 days, 20 DPI): 0.17

Structure (SMILES): CCc1cccc(C2=NCc3c(Cl)cccc3-n3cccc32)c1 [Compound G10]
activity against M. canis (in words) [12]: partial activity
activity compared with present compounds 14 and 4 (G7 and G4, both at 40 mg/kg) [12]: less active
semi-quantitative lesion score (mean) ([12]; 3 DPI): 0
semi-quantitative lesion score (mean) ([12]; 5 DPI): 0.5
semi-quantitative lesion score (mean) ([12]; 7 DPI): 1
semi-quantitative lesion score (mean) ([12]; 10 DPI): 1
semi-quantitative lesion score (mean) ([12]; 12 DPI): 2
semi-quantitative lesion score (mean) ([12]; 14 DPI): 1
semi-quantitative lesion score (mean) ([12]; 18 DPI): 1
semi-quantitative lesion score (mean) ([12]; 21 DPI): 0.5

Structure (SMILES): CCc1ccc(C2=NCc3c(Cl)cccc3-n3cccc32)cc1 [Compound G11]
activity against M. canis (in words) [12]: partial activity
activity compared with present compounds 14 and 4 (G7 and G4, both at 40 mg/kg) [12]: less active
semi-quantitative lesion score (mean) ([12]; 3 DPI): 0
semi-quantitative lesion score (mean) ([12]; 5 DPI): 0
semi-quantitative lesion score (mean) ([12]; 7 DPI): 0.5
semi-quantitative lesion score (mean) ([12]; 10 DPI): 0.5
semi-quantitative lesion score (mean) ([12]; 12 DPI): 0.5
semi-quantitative lesion score (mean) ([12]; 14 DPI): 1
semi-quantitative lesion score (mean) ([12]; 18 DPI): 0.5
semi-quantitative lesion score (mean) ([12]; 21 DPI): 0.5

Structure (SMILES): CCc1ccc(C2=NCc3ccc(Cl)cc3-n3cccc32)cc1 [drawing 29]
solubility ([13]; pH 4, aqueous buffer, buffer pH 4, ambient temperature, read-out: Solubility, buffer system B): < 1 µg/mL
solubility [13, 14]: 48 µg/mL (≈ 150 µM)
solubility ([13]; pH 4, aqueous with cosolvent or surfactant or cyclodextrin, buffer pH 4, containing 20% (w/v) of HPBCD, read-out: Solubility, buffer system D): 1490 µg/mL (≈ 4640 µM)
solubility ([13]; pH 7.4, aqueous buffer, buffer pH 7.4, ambient temperature, read-out: Solubility, buffer system E): < 1 µg/mL
solubility [13, 15]: 35 µg/mL (≈ 109 µM)
solubility [13, 16]: 110 µg/mL (≈ 343 µM)
solubility ([13]; simulated gastric fluid, 0.01 N HCl, ambient temperature, read-out: Solubility, buffer system A): 1880 µg/mL (≈ 5850 µM)

solubility [13, 14]: 1230 µg/mL (≈ 3440 µM)
solubility [13, 15]: 191 µg/mL (≈ 535 µM)
solubility [13, 16]: 603 µg/mL (≈ 1690 µM)
solubility ([13]; phosphate-citrate (McIlvaine) buffer pH 4, pH 4, aqueous buffer, buffer pH 4, ambient temperature, read-out: Solubility, buffer system B): 87 µg/mL (≈ 244 µM)
solubility ([13]; phosphate-citrate (McIlvaine) buffer pH 7.4, pH 7.4, aqueous buffer, buffer pH 7.4, ambient temperature, read-out: Solubility, buffer system E): < 1 µg/mL
Structure (SMILES): CC(F)(F)c1ccc(C2=NCc3ccc(Cl)cc3-n3cccc32)cc1 [drawing 30]

Reference: US9637490B2, “Antifungal 5,6-dihydro-4-[(difluoroethyl)phenyl]-4H-pyrrolo[1,2-α][1,4]benzodiazepine and 4-(difluoroethyl)phenyl-6H-pyrrolo[1,2-α][1,4]benzodiazepine derivatives” (Janssen Pharmaceutica NV, priority 2010, dated 2017)
